Tests used:
[1] = both in vivo and in vitro; cited from earlier work
[2] = tested on: human ES cell-derived myocardial clusters
Description: They were received in raw and recovered using a glass capillary (Vitrolife), cultured in a medium plus 20% inactivated FBS, 1% non-essential amino acids, 1% penicillin-streptomycin, and 0.2% β-mercaptoethanol in DMEM (all purchased from Invitrogen).
Collected clusters were then placed in a multi-electrode tip (Alfa Med Scientific). The day on which they were placed was set to Day 0. Clusters for which a 1st peak of an extracellular potential (FP) of 200 mV or more was acquired on Day 3 was used for data acquisition. A multi-electrode membrane potential measurement system (Nikkyo Technos Corp.) was used to acquire data.
Pre-agent application data (called ‘Before’) was acquired for 10 minutes before agent application. The agent was dissolved in deionized distilled water (DDW) or DMSO, and diluted in PBS before its application. […] Extracellular potential duration (FPD) and STV (short term variability) of the FPD was calculated from the acquired data.
A steep downward peak of the FP corresponds to the inflow of Na^+. A gradual upward peak corresponds to the outflow of K^+. The FPD was defined as the time between the Na^+ and K^+ peaks. In addition, the STV of the FPD was evaluated as the variation between beats of FPD. STV was calculated by the following equation.
[formula] The increase in the variation between the FPDs can be evaluated as an increase in the value of STV. […]

SMILES	known effect on APD and STV [1]	position in two-dimensional plot (X: FPD score, FPD extended by 10% or more; Y: STV score, STV increased by 100% or more) [2]
CC(C)NCC(O)c1ccc(NS(C)(=O)=O)cc1 (racemic) [DL-sotalol]	increase the APD and STV	upper right corner
COc1ccc([C@@H]2Sc3ccccc3N(CCN(C)C)C(=O)[C@@H]2OC(C)=O)cc1 [Diltiazem]		upper left corner
